Experimental data published in patent US7112683B2, “Cyclic sulfone containing retroviral protease inhibitors” (priority 1992, dated 2006).
Like-named read-outs stand apart in the source and are kept apart here.

Experiments:
[1] = TD50 of Table 1 (toxic dose, method not described)
[2] = target: HIV protease (Human immunodeficiency virus type 1 group M subtype B, UniProt P04585); experiment: HIV protease enzyme assay (fluorogenic substrate 2-aminobenzoyl-Ile-Nle-Phe(p-NO2)-Gln-ArgNH2); type: biochemical
Experimental: The compounds of the present invention are effective HIV protease inhibitors. […] The calculated IC50 indicates the concentration providing inhibition of 50%, i.e., the concentration at which the inhibitor compound reduces enzyme activity by 50%). The enzyme method is described below. The substrate is 2-aminobenzoyl-Ile-Nle-Phe(p-NO2)-Gln-ArgNH2. The positive control is MVT-101 [Miller, M. et al, Science, 246, 1149 (1989)]. The assay conditions are as follows: • Assay buffer: 20 mM sodium phosphate, pH 6.4 • 20% glycerol • 1 mM EDTA • 1 mM DTT • 0.1% CHAPS
The above described substrate is dissolved in DMSO, then diluted 10 fold in assay buffer. Final substrate concentration in the assay is […].
HIV protease is diluted in the assay buffer to a final concentration of glycerol is 18%. The test compound is dissolved in DMSO and diluted in DMSO to 10× the test concentration; […] of the enzyme preparation is added, the materials mixed and then the mixture is incubated at ambient temperature for 15 minutes. The enzyme reaction is initiated by the addition of […] of substrate. The increase in fluorescence is monitored at 4 time points (0, 8, 16 and 24 minutes) at ambient temperature. Each assay is carried out in duplicate wells.

[3] = test system: HIV; experiment: EC50 of Table 1 (antiviral activity, method not described); type: cell-based
[4] = HIV protease, pH 6.4, ambient temperature, read-out: IC50
[5] = IC50 (range given for the listed examples), inhibition of the HIV enzyme, range over Examples 4, 4a, 7, 8 and 9
[6] = IC50, HIV protease, pH 6.4, ambient temperature

Row | Molecule | TD50 [1] | IC50 [2, 4] | EC50 [3] | IC50 [2, 5] | IC50 [2, 6] | IC50 ([2]; inhibition of the HIV enzyme, range over Examples 4, 4a, 7, 8 and 9, read-out: IC50 (range given for the listed examples))
1 | 2H-thiopyran-3-carboxamide, N-(3-[[[(1,1-dimethylethyl amino]-carbonyl](3-methylbutyl) amino]-2-hydroxy-1-(phenylmethyl) propyl]tetrahydro,-1,1-dioxide. [Example 4] | 308,000 nM | 13 nM | 63 nM | – | – | –
2 | CC(C)CCN(C[C@@H](O)[C@H](Cc1ccccc1)NC(=O)C1CCCS(=O)(=O)C1)C(=O)NC(C)(C)Cn1ccnc1 (some centres unmarked) [Example 4a] | – | – | – | 3 to 140 nM | 46 nM | –
3 | CC(C)(C)NC(=O)[C@@H]1C[C@@H]2CCCC[C@@H]2CN1C[C@@H](O)[C@H](Cc1ccccc1)NC(=O)C1CCCS(=O)(=O)C1 (some centres unmarked) [Example 7] | – | – | – | 3 to 140 nM | 3 nM | –
4 | CC(C)CCN(C[C@@H](O)[C@H](Cc1ccccc1)NC(=O)C1CCCS(=O)(=O)C1)S(=O)(=O)c1ccccc1 (some centres unmarked) [Example 8] | – | – | – | 3 to 140 nM | 4 nM | –
5 | CC(C)CN(CC(O)C(Cc1ccccc1)NC(=O)C1CCCS(=O)(=O)C1)S(=O)(=O)NC(C)(C)C (centres unmarked) [Example 9] | – | 140 nM | – | – | – | 3 to 140 nM
